Columns and labels:
[1] = system: Raw264.7 cells; format: in vitro ADME, mouse; details: for cellular permeability compared to positive control compound 9 of ref 55: 20 μM input, 2 h, 37 °C; for cellular uptake (cellular bioavailability): LC-MS-based method
[2] = system: mouse embryonic fibroblasts (MEF cells); details: 72 h, up to 25 μM
[3] = biological target: T1, mPTPB (Mycobacterium tuberculosis, UniProt I6WXK4); format: biochemical
[4] = system: Raw 264.7 vector cells (pcN-HA); assay: signaling in vector control cells, western blot, IFN-γ stimulated; format: cell-based, mouse; details: IFN-γ stimulation
[5] = biological target: T1, mPTPB; format: biochemical; remark: listed apart in the source

T1 sequence (I6WXK4 whole entry, looked up): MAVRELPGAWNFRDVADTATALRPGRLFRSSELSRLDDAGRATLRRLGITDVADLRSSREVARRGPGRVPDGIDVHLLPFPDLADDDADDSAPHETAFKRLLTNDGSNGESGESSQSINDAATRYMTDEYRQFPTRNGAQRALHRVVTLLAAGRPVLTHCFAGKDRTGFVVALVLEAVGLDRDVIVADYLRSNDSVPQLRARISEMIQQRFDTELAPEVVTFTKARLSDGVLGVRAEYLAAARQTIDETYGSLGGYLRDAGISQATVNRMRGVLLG

| Compound | cellular permeability compared to positive control compound 9 of ref 55 [1] | cellular uptake (cellular bioavailability) [1] | fold less potency compared to corresponding alkyne analogue [5] | also measured |
| --- | --- | --- | --- | --- |
| O=C(O)C(=O)Nc1ccc(C#Cc2ccc(C(F)(F)F)cc2)cc1 [Compound 4k, 2-Oxo-2-((4-((4-(trifluoromethyl)phenyl)ethynyl)phenyl)amino)acetic Acid] | better cellular permeability | can easily be taken up |  |  |
| CC(C)(C)OC(=O)Nc1ccc(C#Cc2ccc(NC(=O)C(=O)O)cc2)cc1 [Compound 4s, 2-((4-((4-((tert-Butoxycarbonyl)amino)phenyl)ethynyl)phenyl)amino)-2-oxoacetic Acid] | better cellular permeability |  |  | cytotoxicity (cell viability, MTT) [2]: did not exhibit any significant cytotoxicity |
| O=C(O)C(=O)Nc1ccc(C#Cc2ccc(C(F)(F)F)cc2Cl)cc1 [Compound 4t, 2-((4-((2-Chloro-4-(trifluoromethyl)phenyl)ethynyl)phenyl)amino)-2-oxoacetic Acid] | better cellular permeability | can easily be taken up |  | mode of mPTPB inhibition [3]: reversible and competitive inhibitor; cytotoxicity (cell viability, MTT) [2]: did not exhibit any significant cytotoxicity; pAKT, pERK1/2 and pp38 levels compared to vehicle-treated cells [4]: no significant change |
| O=C(O)C(=O)Nc1ccc(C#Cc2ccc(C(F)(F)F)cc2Br)cc1 [Compound 4u, 2-((4-((2-Bromo-4-(trifluoromethyl)phenyl)ethynyl)phenyl)amino)-2-oxoacetic Acid] | better cellular permeability | can easily be taken up |  |  |
| O=C(O)C(=O)Nc1ccc(C#Cc2ccc(C(F)(F)F)cc2F)cc1 [Compound 4v, 2-((4-((2-Fluoro-4-(trifluoromethyl)phenyl)ethynyl)phenyl)amino)-2-oxoacetic Acid] |  | can easily be taken up |  |  |
| O=C(O)C(=O)Nc1ccc(/C=C\c2ccccc2)cc1 [Compound 9, (Z)-2-Oxo-2-((4-styrylphenyl)amino)acetic Acid] |  |  | 3 fold |  |
| O=C(O)C(=O)Nc1ccc(/C=C\c2ccc(C(F)(F)F)cc2)cc1 [Compound 10, (Z)-2-Oxo-2-((4-(4-(trifluoromethyl)styryl)phenyl)amino)acetic Acid] |  |  | 45 fold |  |
| O=C(O)C(=O)Nc1ccc(CCc2ccccc2)cc1 [Compound 11, 2-Oxo-2-((4-phenethylphenyl)amino)acetic Acid] |  |  | 5 fold |  |
| O=C(O)C(=O)Nc1ccc(CCc2ccc(C(F)(F)F)cc2)cc1 [Compound 12, 2-Oxo-2-((4-(4-(trifluoromethyl)phenethyl)phenyl)amino)acetic Acid] |  |  | 13 fold |  |

From article PMC7688068 (Journal of medicinal chemistry, 2020)
